# Values joined by “and” are separate entries in the source; they are usually repeats but may differ in a detail not shown here. Equal values may be shown once. Marks after values point to notes of the source that are not given here.
# Test system: developing Adjuvant-induced arthritis in rats
# Assay: Developing adjuvant-induced arthritis in rats (prophylactic dosing schedule)
# Format: in vivo, rat
# Settings: for % inhibition: day 0 to day 14; for Swelling (mm) ± SEM: day 0 to day 14, readout day 14
# From the text: Adjuvant arthritis can be treated using two different dosing schedules; either starting at the time of immunization with adjuvant (prophylactic dosing) or from day 15 when the arthritic response is already established (therapeutic dosing). It is more difficult to inhibit adjuvant arthritis with the therapeutic dosing schedule as compared to the prophylactic schedule. Both versions of adjuvant arthritis are, however, extremely sensitive to the effects of both non-selective COX inhibitors and COX 2 selective inhibitors where 70-90% inhibition of swelling can be achieved at appropriate doses. These models may be predictive for some of the processes thought to be relevant in rheumatoid arthritis.
# Method: Female Wistar rats weighing 150-170 g (housed in standard conditions, 5 animals per cage, with food and water ad libitum) are injected i.d. at the base of the tail with 0.1 ml of mineral oil containing 0.6 mg of lyophilized heat-killed Mycobacterium tuberculosis. The rats are treated orally with COMPOUND A or placebo formulation from day 15 to day 22 (therapeutic dosing schedule) or with COMPOUND A from day 0 to day 14 after immunization (prophylactic dosing schedule). At the end of the experiment, the swelling of the tarsal joints is measured by means of a micro-caliper. For the comparison study to Diclofenac both compounds are given from day 15 to day 29 with readouts at day 22 and 29. Percentage inhibition of paw swelling is calculated by reference to placebo treated arthritic animals (0% inhibition) and placebo treated normal animals (100% inhibition). Five animals are used per group. Data are analyzed using Kruskal-Wallis non-parametric ANOVA followed by Dunn's Multiple Comparison test.
compound,measurement,setting,value
"COC1=Nc2cc(Cl)ccc2/C(=C/C(=O)O)c2sc(Cl)cc21 [COMPOUND A, [2,7-Dichloro-10-methoxy-3-thia-9-aza-benzo[f]azulen-(4Z)-ylidene]-acetic acid]",% inhibition,0.3 mg/kg p.o.,14.3 * %
same,Swelling (mm) ± SEM,0.3 mg/kg p.o.,10.9 ± 0.6 mm
same,% inhibition,1 mg/kg p.o.,57.1 * %
same,Swelling (mm) ± SEM,1 mg/kg p.o.,9.1 ± 0.5 mm
same,% inhibition,3 mg/kg p.o.,88% and 88.1 ** %
same,Swelling (mm) ± SEM,3 mg/kg p.o.,7.8 ± 0.2 mm
same,ED50,"Rattus norvegicus, po, prophylactic dosing schedule, read-out: calculated ED50",0.8 mg/kg

# — patent publication US8258128B2, “Organic compounds” (Novartis AG, priority 2006, dated 2012)
